Source: patent US11891387B2, “Monoacylglycerol lipase modulators” (Janssen Pharmaceutica NV, priority 2020, dated 2024)

Biological target: human MGL from HeLa cells (Homo sapiens (Human), UniProt Q99685)
Assay: MGL in vitro activity assay: cleavage of [glycerol-1,3-3H]-oleyl glycerol, activated carbon filtration
Format: biochemical
Conditions: 300 nM [Glycerol-1,3-3H]-oleyl glycerol, endogenously expressed MGL from HeLa cells, one hour incubation
Protocol: The assay used to measure the in vitro activity of MGL is adapted from the assay used for another serine hydrolase (FAAH) described in Wilson et al., 2003 (A high-throughput-compatible assay for determining the activity of fatty acid amide hydrolase. Wilson S J, Lovenberg T W, Barbier A J. Anal Biochem. 2003 Jul. 15; 318(2):270-5.). The assay consists of combining endogenously expressed MGL from HeLa cells with test compounds, adding [glycerol-1,3-^3H]-oleyl glycerol, incubating for one hour, and then measuring the amount of cleaved [1,3-^3H]-glycerol that passes through an activated carbon filter. The amount of cleaved, tritiated glycerol passing through the carbon filter is proportional to the activity of the MGL enzyme in a particular well/test condition.
Standard conditions for this assay combine 300 nM [Glycerol-1,3-^3H]-oleyl glycerol with human MGL from HeLa cells and test compounds for one hour, after which the reaction is filtered through activated carbon and tritium is measured in the flow through. The test compound concentration in screening mode is 10 μM, while the highest compound concentration in IC50 assays is determined empirically. MGL is the predominant hydrolase in HeLa cells/cell homogenates.

Sequence of human MGL from HeLa cells (Q99685 whole entry): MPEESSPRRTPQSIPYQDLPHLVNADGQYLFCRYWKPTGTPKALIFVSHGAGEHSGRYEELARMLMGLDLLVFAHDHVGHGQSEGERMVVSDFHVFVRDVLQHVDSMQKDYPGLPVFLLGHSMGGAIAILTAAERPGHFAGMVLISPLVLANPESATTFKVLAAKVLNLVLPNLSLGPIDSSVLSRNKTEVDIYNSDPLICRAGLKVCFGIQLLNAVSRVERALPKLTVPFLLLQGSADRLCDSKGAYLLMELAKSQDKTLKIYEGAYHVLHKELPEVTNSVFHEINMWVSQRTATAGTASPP

IC50	SMILES
37 nM	C[C@H]1c2nn(C)c(-c3cc(C(F)(F)F)nn3C)c2CCN1C(=O)c1c[nH]c2cccc(F)c12 [Example 5, (S)-(2,7-dimethyl-3-(1-methyl-3-(trifluoromethyl)-1H-pyrazol-5-yl)-2,4,5,7-tetrahydro-6H-pyrazolo[3,4-c]pyridin-6-yl)(4-fluoro-1H-indol-3-yl)methanone]
37 nM	C[C@H]1c2nn(C)c(-c3cc(C(F)(F)F)nn3C)c2CCN1C(=O)c1nn(C)c2ccccc12 [Example 6, (S)-(2,7-Dimethyl-3-(1-methyl-3-(trifluoromethyl)-1H-pyrazol-5-yl)-2,4,5,7-tetrahydro-6H-pyrazolo[3,4-c]pyridin-6-yl)(1-methyl-1H-indazol-3-yl)methanone]
50 nM	Cc1cccn2ncc(C(=O)N3CCc4c(nn(C)c4-c4cc(C(F)(F)F)nn4C)[C@@H]3C)c12 [Example 7, (S)-(2,7-Dimethyl-3-(1-methyl-3-(trifluoromethyl)-1H-pyrazol-5-yl)-2,4,5,7-tetrahydro-6H-pyrazolo[3,4-c]pyridin-6-yl)(4-methylpyrazolo[1,5-a]pyridin-3-yl)methanone]
8.9 nM	Cc1cccc2ncc(C(=O)N3CCc4c(nn(C)c4-c4cc(C(F)(F)F)nn4C)[C@@H]3C)n12 [Example 8, (S)-(2,7-Dimethyl-3-(1-methyl-3-(trifluoromethyl)-1H-pyrazol-5-yl)-2,4,5,7-tetrahydro-6H-pyrazolo[3,4-c]pyridin-6-yl)(5-methylimidazo[1,2-a]pyridin-3-yl)methanone]
12 nM	Cc1cc(C(=O)N2CCc3c(nn(C)c3-c3cc(C(F)(F)F)nn3C)[C@@H]2C)c2ccccc2n1 [Example 9, (S)-(2,7-Dimethyl-3-(1-methyl-3-(trifluoromethyl)-1H-pyrazol-5-yl)-2,4,5,7-tetrahydro-6H-pyrazolo[3,4-c]pyridin-6-yl)(2-methylquinolin-4-yl)methanone]
18 nM	Cc1cc(C(=O)N2CCc3c(nn(C)c3-c3cc(C(F)(F)F)nn3C)[C@@H]2C)c2cc(F)ccc2n1 [Example 10, (S)-(2,7-Dimethyl-3-(1-methyl-3-(trifluoromethyl)-1H-pyrazol-5-yl)-2,4,5,7-tetrahydro-6H-pyrazolo[3,4-c]pyridin-6-yl)(6-fluoro-2-methylquinolin-4-yl)methanone]
6.2 nM	C[C@H]1c2nn(C)c(-c3cc(C(F)(F)F)nn3C)c2CCN1C(=O)c1cnn2cccc(F)c12 [Example 11, (S)-(2,7-Dimethyl-3-(1-methyl-3-(trifluoromethyl)-1H-pyrazol-5-yl)-2,4,5,7-tetrahydro-6H-pyrazolo[3,4-c]pyridin-6-yl)(4-fluoropyrazolo[1,5-a]pyridin-3-yl)methanone]
100 nM	C[C@H]1c2nn(C)c(-c3cc(C(F)(F)F)nn3C)c2CCN1C(=O)c1ccnc2c1ccn2CC(F)(F)F [Example 12, (S)-(2,7-Dimethyl-3-(1-methyl-3-(trifluoromethyl)-1H-pyrazol-5-yl)-2,4,5,7-tetrahydro-6H-pyrazolo[3,4-c]pyridin-6-yl)(1-(2,2,2-trifluoroethyl)-1H-pyrrolo[2,3-b]pyridin-4-yl)methanone]
220 nM	Cc1nc2ccccc2cc1C(=O)N1CCc2c(nn(C)c2-c2cc(C(F)(F)F)nn2C)[C@@H]1C [Example 13, (S)-(2,7-Dimethyl-3-(1-methyl-3-(trifluoromethyl)-1H-pyrazol-5-yl)-2,4,5,7-tetrahydro-6H-pyrazolo[3,4-c]pyridin-6-yl)(2-methylquinolin-3-yl)methanone]
15 nM	COc1ccc(C(=O)N2CCc3c(nn(C)c3-c3cc(C(F)(F)F)nn3C)[C@@H]2C)c2cccnc12 [Example 14, (S)-(2,7-Dimethyl-3-(1-methyl-3-(trifluoromethyl)-1H-pyrazol-5-yl)-2,4,5,7-tetrahydro-6H-pyrazolo[3,4-c]pyridin-6-yl)(8-methoxyquinolin-5-yl)methanone]
56 nM	Cc1cc(C(=O)N2CCc3c(nn(C)c3-c3cc(C(F)(F)F)nn3C)[C@@H]2C)c2cnn(C)c2n1 [Example 15, (S)-(1,6-Dimethyl-1H-pyrazolo[3,4-b]pyridin-4-yl)(2,7-dimethyl-3-(1-methyl-3-(trifluoromethyl)-1H-pyrazol-5-yl)-2,4,5,7-tetrahydro-6H-pyrazolo[3,4-c]pyridin-6-yl)methanone]
370 nM	COc1nn(C)cc1-c1c2c(nn1C)[C@H](C)N(C(=O)c1ccc3ncccc3c1)CC2 [Example 16, (S)-(3-(3-Methoxy-1-methyl-1H-pyrazol-4-yl)-2,7-dimethyl-2,4,5,7-tetrahydro-6H-pyrazolo[3,4-c]pyridin-6-yl)(quinolin-6-yl)methanone]
20 nM	C[C@H]1c2nn(C)c(-c3cc(C(F)(F)F)nn3C)c2CCN1C(=O)c1cnn2cc(F)cc(F)c12 [Example 17, (S)-(4,6-Difluoropyrazolo[1,5-a]pyridin-3-yl)(2,7-dimethyl-3-(1-methyl-3-(trifluoromethyl)-1H-pyrazol-5-yl)-2,4,5,7-tetrahydro-6H-pyrazolo[3,4-c]pyridin-6-yl)methanone]
360 nM	C[C@H]1c2nn(C)c(-c3cc(C(F)(F)F)nn3C)c2CCN1C(=O)c1cnc2cc(F)cc(F)c2c1 [Example 18, (S)-(5,7-Difluoroquinolin-3-yl)(2,7-dimethyl-3-(1-methyl-3-(trifluoromethyl)-1H-pyrazol-5-yl)-2,4,5,7-tetrahydro-6H-pyrazolo[3,4-c]pyridin-6-yl)methanone]
19 nM	C[C@H]1c2nn(C)c(-c3cc(C(F)(F)F)n(C)n3)c2CCN1C(=O)c1cnn2cccc(F)c12 [Example 19, (S)-(2,7-Dimethyl-3-(1-methyl-5-(trifluoromethyl)-1H-pyrazol-3-yl)-2,4,5,7-tetrahydro-6H-pyrazolo[3,4-c]pyridin-6-yl)(4-fluoropyrazolo[1,5-a]pyridin-3-yl)methanone]
8.2 nM	COc1cc(C(=O)N2CCc3c(nn(C)c3-c3cc(C(F)(F)F)n(C)n3)[C@@H]2C)c2ccccc2n1 [Example 20, (S)-(2,7-Dimethyl-3-(1-methyl-5-(trifluoromethyl)-1H-pyrazol-3-yl)-2,4,5,7-tetrahydro-6H-pyrazolo[3,4-c]pyridin-6-yl)(2-methoxyquinolin-4-yl)methanone]
5.6 nM	C[C@H]1c2nn(C)c(-c3cc(C(F)(F)F)nn3C)c2CCN1C(=O)c1ccc(F)c2c1cnn2C [Example 21, (S)-(2,7-Dimethyl-3-(1-methyl-3-(trifluoromethyl)-1H-pyrazol-5-yl)-2,4,5,7-tetrahydro-6H-pyrazolo[3,4-c]pyridin-6-yl)(7-fluoro-1-methyl-1H-indazol-4-yl)methanone]
30 nM	C[C@H]1c2nn(C)c(-c3cc(C(F)(F)F)nn3C)c2CCN1C(=O)c1nn(C)c2ccc(F)cc12 [Example 22, (S)-(2,7-Dimethyl-3-(1-methyl-3-(trifluoromethyl)-1H-pyrazol-5-yl)-2,4,5,7-tetrahydro-6H-pyrazolo[3,4-c]pyridin-6-yl)(5-fluoro-1-methyl-1H-indazol-3-yl)methanone]
84 nM	C[C@H]1c2nn(C)c(-c3cc(C(F)(F)F)nn3C)c2CCN1C(=O)c1cccc2nn(C)cc12 [Example 23, (S)-(2,7-Dimethyl-3-(1-methyl-3-(trifluoromethyl)-1H-pyrazol-5-yl)-2,4,5,7-tetrahydro-6H-pyrazolo[3,4-c]pyridin-6-yl)(2-methyl-2H-indazol-4-yl)methanone]
1760 nM	Cc1nc2cc(F)ccc2cc1C(=O)N1CCc2c(nn(C)c2-c2cc(C(F)(F)F)nn2C)[C@@H]1C [Example 24, (S)-(2,7-Dimethyl-3-(1-methyl-3-(trifluoromethyl)-1H-pyrazol-5-yl)-2,4,5,7-tetrahydro-6H-pyrazolo[3,4-c]pyridin-6-yl)(7-fluoro-2-methylquinolin-3-yl)methanone]
90 nM	Cc1ccc2nc(C)cc(C(=O)N3CCc4c(nn(C)c4-c4cc(C(F)(F)F)nn4C)[C@@H]3C)c2c1 [Example 25, (S)-(2,7-Dimethyl-3-(1-methyl-3-(trifluoromethyl)-1H-pyrazol-5-yl)-2,4,5,7-tetrahydro-6H-pyrazolo[3,4-c]pyridin-6-yl)(2,6-dimethylquinolin-4-yl)methanone]
880 nM	COc1ccc2nc(C)cc(C(=O)N3CCc4c(nn(C)c4-c4cc(C(F)(F)F)nn4C)[C@@H]3C)c2c1 [Example 26, (S)-(2,7-Dimethyl-3-(1-methyl-3-(trifluoromethyl)-1H-pyrazol-5-yl)-2,4,5,7-tetrahydro-6H-pyrazolo[3,4-c]pyridin-6-yl)(6-methoxy-2-methylquinolin-4-yl)methanone]
1170 nM	C[C@H]1c2nn(C)c(-c3cnn(C)c3C(F)(F)F)c2CCN1C(=O)c1nn(C)c2cc(F)cc(F)c12 [Example 27, (S)-(4,6-Difluoro-1-methyl-1H-indazol-3-yl)(2,7-dimethyl-3-(1-methyl-5-(trifluoromethyl)-1H-pyrazol-4-yl)-2,4,5,7-tetrahydro-6H-pyrazolo[3,4-c]pyridin-6-yl)methanone]
2120 nM	C[C@H]1c2nn(C)c(-c3cnn(C)c3C(F)(F)F)c2CCN1C(=O)c1n[nH]c2cc(F)cc(F)c12 [Example 28, (S)-(4,6-Difluoro-1H-indazol-3-yl)(2,7-dimethyl-3-(1-methyl-5-(trifluoromethyl)-1H-pyrazol-4-yl)-2,4,5,7-tetrahydro-6H-pyrazolo[3,4-c]pyridin-6-yl)methanone]
